Laboratory results taken from US20070219180A1, “Muscle Relaxtion Accelerator and Therapeutic Agent for Muscular Tissue Diseases Such as Muscle Relaxation Failure” (priority 2004, published 2007).

Key:
male Wistar rats [1] = experiment: Experiment 2: effect of the compound on blood pressure in rats under calcium chloride and norepinephrine infusion; type: in vivo, rat
Procedure: (§1) Eight-week old male Wistar rats weighing 310-330 g were used in this experiment. The rats were anesthetized with 1,000 mg/kg of urethane and 80 mg/kg of α-chloralose by subperitoneal injection, and natural respiration was maintained. In this experiment, 100 mg of the compound was dissolved in 1 ml of dimethylsulfoxide (DMSO) and the resulting DMSO solution of the compound was stored at 4° C. Norepinephrine solution was prepared by dissolving 1 mg of norepinephrine in 41 μl of distilled water.
Similarly to Experiment 1, this experiment was performed at 20 to 25° C. Furthermore, similarly to Experiment 1, continuous infusion catheters of calcium chloride solution or norepinephrine solution containing calcium chloride were inserted into the right external jugular veins of the rats, and microchip catheters (SPC-320, Millar) were inserted into the aorta via the right common arteries.
(§2) A 1-lead electrocardiogram and the systolic pressure and diastolic pressure were recorded on a personal computer via an A/D converter. In the preparation step, blood pressure, pulse, and electrocardiogram of the rats were monitored for 15 minutes and allowed to stabilize, and then 5% dextrose solution containing calcium chloride (at a concentration based on the weight of the rat) was infused into the right external jugular vein for 25 minutes at 16.6 μl/min (9.0 mg/kg/min of calcium chloride).
Secondly, norepinephrine solution containing calcium chloride without changes in the dosage regimen was immediately injected at a rate of 40 μg/kg/min (in the form of a norepinephrine solution containing calcium chloride). Five minutes after commencement of injection (intravenous injection) of norepinephrine, continuous injection of calcium chloride and norepinephrine in the form of a norepinephrine solution containing calcium chloride was started, and 0.2 ml of 1% DMSO solution as a solvent control was administered over 30 seconds to the first rat (weight: 310 g) via the right femoral vein; this rat was defined as Control 3. After the solvent control was injected, 1% DMSO solution as a solvent control was additionally administered to Control 3 at 10 μl/min from commencement of solvent control injection to 15 minutes after the start of administration. Similarly to Control 3, 5 minutes after commencement of injection (intravenous injection) of norepinephrine in the form of a norepinephrine solution containing the calcium chloride, continuous injection of the calcium chloride and norepinephrine in the form of a norepinephrine solution containing calcium chloride was started, and 0.2 ml of 1% DMSO solution containing 0.3 mg/kg of the compound was administered over 30 seconds to a second rat (weight: 330 g; referred to as Test drug 3), and 1% DMSO solution containing 0.02 mg/kg of the test drug was then administered for 14 minutes at a rate of 0.02 mg/kg/min. Systolic pressure (mmHg) and diastolic pressure (mmHg) of each rat were measured at 20 heart beats every 2 minutes for 14 minutes after commencement of intravenous injection of the test drug. Mean blood pressure was calculated from the measured systolic pressure (mmHg) and diastolic pressure (mmHg) according to the following formula: mean blood pressure=[…].

male Wistar rats [2] = experiment: Experiment 1: left ventricular end diastolic pressure in rats under calcium chloride and norepinephrine infusion; type: in vivo, rat
Procedure: as §1, with “In Experiment 1, the hydrochloride of 4-[3-(4-benzylpiperidine-1-yl) propionyl]-7-methoxy-2,3,4,5-tetrahydro-1,4-benzothiazepine, the compound in the invention (hereinafter called the compound), was used as a pharmaceutically acceptable salt of the 1,4-benzothiazepine derivative. Eight-week” for “Eight-week”, “300-330” for “310-330”, “the study.” for “this experiment.”, “water, at an infusion speed of 40 μg/kg/min.” for “water.”
Firstly, continuous infusion catheters of calcium chloride solution or norepinephrine solution containing calcium chloride were inserted into the right external jugular veins of the rats, and microchip catheters (SPC-320, Millar) were inserted into the left ventricles via the right common arteries. In addition, test drug infusion catheters were inserted into the right femoral veins.
as §2, with “left ventricular” for “systolic pressure and diastolic”, “recorded simultaneously” for “recorded”, “converter. In order to determine the left ventricular end diastolic pressure, a pressure equivalent to the R wave of the electrocardiogram was measured at 20 heart beats every minute, and the mean of the pressure so measured was determined as the left ventricular end diastolic pressure, at the time of measuring.” for “converter.”, “20” for “25”
Secondly, norepinephrine solution containing calcium chloride without changes in dosage was immediately injected at a rate of 40 μg/kg/min via the right external jugular vein. After the start of the administration, calcium chloride and norepinephrine were then continuously injected in the form of a norepinephrine solution containing calcium chloride. With continuous injection of calcium chloride and norepinephrine (in the form of a norepinephrine solution containing calcium chloride) via the right external jugular vein, 0.2 ml of […] was administered over 30 seconds to the first rat (weight: 300 g) as a control via the right femoral vein, 5 minutes after commencement of injection (intravenous injection) of calcium chloride and norepinephrine (in the form of a norepinephrine solution containing calcium chloride) via the right external jugular vein; this rat was defined as Control 1. Similarly to Control 1, with continuous injection of calcium chloride and norepinephrine (in the form of a norepinephrine solution containing calcium chloride) via the right external jugular vein, 0.2 ml of 1% DMSO solution as a solvent control was administered over 30 seconds to a second rat (weight: 310 g) via the right femoral vein, 5 minutes after commencement of injection (intravenous injection) via the right external jugular vein of calcium chloride and norepinephrine (in the form of a norepinephrine solution containing calcium chloride); this rat was defined as Control 2. […]

How did the Mean blood pressure (male Wistar rats [1]; Test drug 3: 0.3 mg/kg i.v. over 30 s then 0.02 mg/kg/min for 14 min, 0 minutes (just before the start of test drug administration)) turn out when `COc1ccc2c(c1)CN(C(=O)CCN1CCC(Cc3ccccc3)CC1)CCS2` [the compound, 4-[3-(4-benzylpiperidine-1-yl)propionyl]-7-methoxy-2,3,4,5-tetrahydro-1,4-benzothiazepine] was run?
The Mean blood pressure was 136 mmHg.

And the Mean blood pressure (male Wistar rats [1]; Test drug 3: 0.3 mg/kg i.v. over 30 s then 0.02 mg/kg/min for 14 min, 5 minutes before test drug (just before the start of norepinephrine), baseline)?
The Mean blood pressure was 125 mmHg.

And the Mean blood pressure (male Wistar rats [1]; Test drug 3: 0.3 mg/kg i.v. over 30 s then 0.02 mg/kg/min for 14 min, 30 minutes before test drug (5 minutes before the start of CaCl2), baseline)?
Its Mean blood pressure is 122 mmHg.

And the Mean blood pressure (male Wistar rats [1]; Test drug 3: 0.3 mg/kg i.v. over 30 s then 0.02 mg/kg/min, CaCl2 + norepinephrine infusion, 2 minutes after the start of test drug administration)?
The Mean blood pressure was 149 mmHg.

What about the Mean blood pressure (male Wistar rats [1]; Test drug 3: 0.3 mg/kg i.v. over 30 s then 0.02 mg/kg/min, CaCl2 + norepinephrine infusion, 4 minutes after the start of test drug administration) of the same molecule?
The Mean blood pressure was 162 mmHg.

And the Mean blood pressure (male Wistar rats [1]; Test drug 3: 0.3 mg/kg i.v. over 30 s then 0.02 mg/kg/min, CaCl2 + norepinephrine infusion, 6 minutes after the start of test drug administration)?
The Mean blood pressure was 141 mmHg.

And the Mean blood pressure (male Wistar rats [1]; Test drug 3: 0.3 mg/kg i.v. over 30 s then 0.02 mg/kg/min, CaCl2 + norepinephrine infusion, 8 minutes after the start of test drug administration)?
Its Mean blood pressure is 139 mmHg.

And the Mean blood pressure (male Wistar rats [1]; Test drug 3: 0.3 mg/kg i.v. over 30 s then 0.02 mg/kg/min, CaCl2 + norepinephrine infusion, 10 minutes after the start of test drug administration)?
Its Mean blood pressure is 135 mmHg.

What about the Mean blood pressure (male Wistar rats [1]; Test drug 3: 0.3 mg/kg i.v. over 30 s then 0.02 mg/kg/min, CaCl2 + norepinephrine infusion, 12 minutes after the start of test drug administration) of the same molecule?
The Mean blood pressure was 136 mmHg.

And the Mean blood pressure (male Wistar rats [1]; Test drug 3: 0.3 mg/kg i.v. over 30 s then 0.02 mg/kg/min, CaCl2 + norepinephrine infusion, 14 minutes after the start of test drug administration)?
The Mean blood pressure was 134 mmHg.

And the “Left ventricular diastolic pressure compared with Controls 1 and 2 at the same time point” value (male Wistar rats [2]; 15 minutes after commencement of the test drug, Test drugs 1 and 2)?
Its value is “less than half those in Controls 1 and 2”.

And the “Left ventricular end diastolic pressure” value (male Wistar rats [2]; Test drug 1: 0.3 mg/kg i.v. over 30 s + 0.02 mg/kg/min to 15 min, 0 minutes (just before the start of test drug administration))?
The value was 8.9 mmHg.

And the “Left ventricular end diastolic pressure” value (male Wistar rats [2]; Test drug 1: 0.3 mg/kg i.v. over 30 s + 0.02 mg/kg/min to 15 min, 5 minutes before test drug (just before the start of norepinephrine), baseline)?
The value was 8.6 mmHg.

And the “Left ventricular end diastolic pressure” value (male Wistar rats [2]; Test drug 1: 0.3 mg/kg i.v. over 30 s + 0.02 mg/kg/min to 15 min, 10 minutes before test drug (15 minutes after the start of CaCl2), baseline)?
The value was 8.5 mmHg.

And the “Left ventricular end diastolic pressure” value (male Wistar rats [2]; Test drug 1: 0.3 mg/kg i.v. over 30 s + 0.02 mg/kg/min to 15 min, 15 minutes before test drug (10 minutes after the start of CaCl2), baseline)?
Its value is 8.6 mmHg.

And the “Left ventricular end diastolic pressure” value (male Wistar rats [2]; Test drug 1: 0.3 mg/kg i.v. over 30 s + 0.02 mg/kg/min to 15 min, 20 minutes before test drug (5 minutes after the start of CaCl2), baseline)?
Its value is 7.9 mmHg.

What about the “Left ventricular end diastolic pressure” value (male Wistar rats [2]; Test drug 1: 0.3 mg/kg i.v. over 30 s + 0.02 mg/kg/min to 15 min, 25 minutes before test drug (just after the start of CaCl2), baseline) of the same molecule?
The value was 7.8 mmHg.

What about the “Left ventricular end diastolic pressure” value (male Wistar rats [2]; Test drug 1: 0.3 mg/kg i.v. over 30 s + 0.02 mg/kg/min to 15 min, CaCl2 + norepinephrine infusion, 5 minutes after the start of test drug administration) of the same molecule?
Its value is 10.6 mmHg.

What about the “Left ventricular end diastolic pressure” value (male Wistar rats [2]; Test drug 1: 0.3 mg/kg i.v. over 30 s + 0.02 mg/kg/min to 15 min, CaCl2 + norepinephrine infusion, 10 minutes after the start of test drug administration) of the same molecule?
Its value is 12.5 mmHg.

What about the “Left ventricular end diastolic pressure” value (male Wistar rats [2]; Test drug 1: 0.3 mg/kg i.v. over 30 s + 0.02 mg/kg/min to 15 min, CaCl2 + norepinephrine infusion, 15 minutes after the start of test drug administration) of the same molecule?
Its value is 11.8 mmHg.

And the “Left ventricular end diastolic pressure” value (male Wistar rats [2]; Test drug 1: 0.3 mg/kg i.v. over 30 s + 0.02 mg/kg/min to 15 min, CaCl2 + norepinephrine infusion, 30 minutes before test drug (5 minutes before the start of CaCl2), baseline)?
The value was 7.5 mmHg.

And the “Left ventricular end diastolic pressure” value (male Wistar rats [2]; Test drug 2: 0.3 mg/kg i.v. over 30 s only, 0 minutes (just before the start of test drug administration))?
Its value is 9.6 mmHg.

And the “Left ventricular end diastolic pressure” value (male Wistar rats [2]; Test drug 2: 0.3 mg/kg i.v. over 30 s only, 5 minutes before test drug (just before the start of norepinephrine), baseline)?
The value was 9.3 mmHg.

What about the “Left ventricular end diastolic pressure” value (male Wistar rats [2]; Test drug 2: 0.3 mg/kg i.v. over 30 s only, 10 minutes before test drug (15 minutes after the start of CaCl2), baseline) of the same molecule?
The value was 9.0 mmHg.

What about the “Left ventricular end diastolic pressure” value (male Wistar rats [2]; Test drug 2: 0.3 mg/kg i.v. over 30 s only, 15 minutes before test drug (10 minutes after the start of CaCl2), baseline) of the same molecule?
Its value is 9.2 mmHg.

And the “Left ventricular end diastolic pressure” value (male Wistar rats [2]; Test drug 2: 0.3 mg/kg i.v. over 30 s only, 20 minutes before test drug (5 minutes after the start of CaCl2), baseline)?
Its value is 8.8 mmHg.

And the “Left ventricular end diastolic pressure” value (male Wistar rats [2]; Test drug 2: 0.3 mg/kg i.v. over 30 s only, 25 minutes before test drug (just after the start of CaCl2), baseline)?
Its value is 8.6 mmHg.

What about the “Left ventricular end diastolic pressure” value (male Wistar rats [2]; Test drug 2: 0.3 mg/kg i.v. over 30 s only, CaCl2 + norepinephrine infusion, 5 minutes after the start of test drug administration) of the same molecule?
Its value is 13.8 mmHg.

And the “Left ventricular end diastolic pressure” value (male Wistar rats [2]; Test drug 2: 0.3 mg/kg i.v. over 30 s only, CaCl2 + norepinephrine infusion, 10 minutes after the start of test drug administration)?
Its value is 16.4 mmHg.

What about the “Left ventricular end diastolic pressure” value (male Wistar rats [2]; Test drug 2: 0.3 mg/kg i.v. over 30 s only, CaCl2 + norepinephrine infusion, 15 minutes after the start of test drug administration) of the same molecule?
The value was 15.3 mmHg.

And the “Left ventricular end diastolic pressure” value (male Wistar rats [2]; Test drug 2: 0.3 mg/kg i.v. over 30 s only, CaCl2 + norepinephrine infusion, 30 minutes before test drug (5 minutes before the start of CaCl2), baseline)?
Its value is 8.4 mmHg.
